In patent US11098038B2, “Imidazole-based anticancer agents and derivatives thereof, and methods of making and using same” (The University of Toledo, priority 2017, dated 2021):

Experiments:
SF-268 = experiment: NCI 60 screen, SF-268; type: cell-based; details: Homo sapiens, CNS
Experimental: (§1) The compounds synthesized were tested at the National Cancer Institute (NCI) for anti-proliferative activity in the 60 human tumor cell line assay.

HS 578T = experiment: NCI 60 screen, HS 578T; type: cell-based; details: Homo sapiens, Breast
Experimental: as §1

UACC-257 = experiment: NCI 60 screen, UACC-257; type: cell-based; details: Homo sapiens, Melanoma
Experimental: as §1

MOLT-4 = experiment: NCI 60 screen, MOLT-4; type: cell-based; details: Homo sapiens, Leukemia
Experimental: as §1

SK-MEL-5 = experiment: NCI 60 screen, SK-MEL-5; type: cell-based; details: Homo sapiens, Melanoma
Experimental: as §1

UACC-62 = experiment: NCI 60 screen, UACC-62; type: cell-based; details: Homo sapiens, Melanoma
Experimental: as §1

HOP-62 = experiment: NCI 60 screen, HOP-62; type: cell-based; details: Homo sapiens, Non-Small Cell Lung
Experimental: as §1

COLO 205 = experiment: NCI 60 screen, COLO 205; type: cell-based; details: Homo sapiens, Colon
Experimental: as §1

TK-10 = experiment: NCI 60 screen, TK-10; type: cell-based; details: Homo sapiens, Renal
Experimental: as §1

786-0 = experiment: NCI 60 screen, 786-0; type: cell-based; details: Homo sapiens, Renal
Experimental: as §1

OVCAR-8 = experiment: NCI 60 screen, OVCAR-8; type: cell-based; details: Homo sapiens, Ovarian
Experimental: as §1

HCT-116 = experiment: NCI 60 screen, HCT-116; type: cell-based; details: Homo sapiens, Colon
Experimental: as §1

M14 = experiment: NCI 60 screen, M14; type: cell-based; details: Homo sapiens, Melanoma
Experimental: as §1

MDA-MB-435 = experiment: NCI 60 screen, MDA-MB-435; type: cell-based; details: Homo sapiens, Melanoma
Experimental: as §1

IGROV1 = experiment: NCI 60 screen, IGROV1; type: cell-based; details: Homo sapiens, IGROV-1, Ovarian
Experimental: as §1

PC-3 = experiment: NCI 60 screen, PC-3; type: cell-based; details: Homo sapiens, Prostatic
Experimental: as §1

SK-MEL-2 [1] = experiment: NCI 60 screen, SK-MEL-2 (first line); type: cell-based; details: Homo sapiens; Melanoma, SK-MEL-2 (first of two lines so named, r37)
Experimental: as §1

SR = experiment: NCI 60 screen, SR; type: cell-based; details: Homo sapiens, Leukemia
Experimental: as §1

SK-OV-3 = experiment: NCI 60 screen, SK-OV-3; type: cell-based; details: Homo sapiens, Ovarian
Experimental: as §1

RXF393 = experiment: NCI 60 screen, RXF393; type: cell-based; details: Homo sapiens, RXF 393, Renal
Experimental: as §1

SW-620 = experiment: NCI 60 screen, SW-620; type: cell-based; details: Homo sapiens, Colon
Experimental: as §1

OVCAR-3 = experiment: NCI 60 screen, OVCAR-3; type: cell-based; details: Homo sapiens, Ovarian
Experimental: as §1

SF-539 = experiment: NCI 60 screen, SF-539; type: cell-based; details: Homo sapiens, CNS
Experimental: as §1

HCC-2998 = experiment: NCI 60 screen, HCC-2998; type: cell-based; details: Homo sapiens, Colon
Experimental: as §1

HOP-92 = experiment: NCI 60 screen, HOP-92; type: cell-based; details: Homo sapiens, Non-Small Cell Lung
Experimental: as §1

SF-295 = experiment: NCI 60 screen, SF-295; type: cell-based; details: Homo sapiens, CNS
Experimental: as §1

U251 = experiment: NCI 60 screen, U251; type: cell-based; details: Homo sapiens, U-251, CNS
Experimental: as §1

OVCAR-4 = experiment: NCI 60 screen, OVCAR-4; type: cell-based; details: Homo sapiens, Ovarian
Experimental: as §1

UO-31 = experiment: NCI 60 screen, UO-31; type: cell-based; details: Homo sapiens, Renal
Experimental: as §1

LOX IMVI = experiment: NCI 60 screen, LOX IMVI; type: cell-based; details: Homo sapiens, Melanoma
Experimental: as §1

NCI-460 = experiment: NCI 60 screen, NCI-460; type: cell-based; details: Homo sapiens, Non-Small Cell Lung
Experimental: as §1

CCRF-CEM = experiment: NCI 60 screen, CCRF-CEM; type: cell-based; details: Homo sapiens, Leukemia
Experimental: as §1

K-562 = experiment: NCI 60 screen, K-562; type: cell-based; details: Homo sapiens, K562, Leukemia
Experimental: as §1

BT-549 = experiment: NCI 60 screen, BT-549; type: cell-based; details: Homo sapiens, Breast
Experimental: as §1

NCI/ADR-RES = experiment: NCI 60 screen, NCI/ADR-RES; type: cell-based; details: Homo sapiens, Ovarian
Experimental: as §1

RPMI-8226 = experiment: NCI 60 screen, RPMI-8226; type: cell-based; details: Homo sapiens, Leukemia
Experimental: as §1

NCI-H522 = experiment: NCI 60 screen, NCI-H522; type: cell-based; details: Homo sapiens, Non-Small Cell Lung
Experimental: as §1

NCI-H23 = experiment: NCI 60 screen, NCI-H23; type: cell-based; details: Homo sapiens, Non-Small Cell Lung
Experimental: as §1

A549/ATCC = experiment: NCI 60 screen, A549/ATCC; type: cell-based; details: Homo sapiens, Non-Small Cell Lung
Experimental: as §1

SN12C = experiment: NCI 60 screen, SN12C; type: cell-based; details: Homo sapiens, Renal
Experimental: as §1

KM12 = experiment: NCI 60 screen, KM12; type: cell-based; details: Homo sapiens, Colon
Experimental: as §1

MALME-3M = experiment: NCI 60 screen, MALME-3M; type: cell-based; details: Homo sapiens, Melanoma
Experimental: as §1

MDA-MB-231/ATCC = experiment: NCI 60 screen, MDA-MB-231/ATCC; type: cell-based; details: Homo sapiens, Breast
Experimental: as §1

SNB-75 = experiment: NCI 60 screen, SNB-75; type: cell-based; details: Homo sapiens, CNS
Experimental: as §1

NCI-H226 = experiment: NCI 60 screen, NCI-H226; type: cell-based; details: Homo sapiens, Non-Small Cell Lung
Experimental: as §1

HL-60(TB) = experiment: NCI 60 screen, HL-60(TB); type: cell-based; details: Homo sapiens, Leukemia
Experimental: as §1

OVCAR-5 = experiment: NCI 60 screen, OVCAR-5; type: cell-based; details: Homo sapiens, Ovarian
Experimental: as §1

HCT15 = experiment: NCI 60 screen, HCT15; type: cell-based; details: Homo sapiens, HCT-15, Colon
Experimental: as §1

SNB-19 = experiment: NCI 60 screen, SNB-19; type: cell-based; details: Homo sapiens, CNS
Experimental: as §1

EKVX = experiment: NCI 60 screen, EKVX; type: cell-based; details: Homo sapiens, Non-Small Cell Lung
Experimental: as §1

T-47D = experiment: NCI 60 screen, T-47D; type: cell-based; details: Homo sapiens, T47D, Breast
Experimental: as §1

DU-145 = experiment: NCI 60 screen, DU-145; type: cell-based; details: Homo sapiens, Prostatic
Experimental: as §1

CAKI-1 = experiment: NCI 60 screen, CAKI-1; type: cell-based; details: Homo sapiens, Renal
Experimental: as §1

HT29 = experiment: NCI 60 screen, HT29; type: cell-based; details: Homo sapiens, HT-29, Colon
Experimental: as §1

ACHN = experiment: NCI 60 screen, ACHN; type: cell-based; details: Homo sapiens, Renal
Experimental: as §1

A498 = experiment: NCI 60 screen, A498; type: cell-based; details: Homo sapiens, Renal
Experimental: as §1

NCI-322M = experiment: NCI 60 screen, NCI-322M; type: cell-based; details: Homo sapiens, Non-Small Cell Lung
Experimental: as §1

SK-MEL-2 [2] = experiment: NCI 60 screen, SK-MEL-2 (second line); type: cell-based; details: Homo sapiens; Melanoma, SK-MEL-2 (second of two lines so named, r38)
Experimental: as §1

MDA-MB-468 = experiment: NCI 60 screen, MDA-MB-468; type: cell-based; details: Homo sapiens, Breast
Experimental: as §1

MCF7 = experiment: NCI 60 screen, MCF7; type: cell-based; details: Homo sapiens, Breast
Experimental: as §1

Question: With `CCn1ccnc1C(=O)/C=C/c1ccc(CC(=O)Nc2ccc(F)cc2)cc1` [Compound 31, (E)-2-(4-(3-(1-ethyl-1H-imidazol-2-yl)-3-oxoprop-1-en-1-yl)phenyl)-N-(4-fluorophenyl)acetamide] as the compound, how does the GI50 (SF-268) read?
Answer: 3.81 µM

Question: And the GI50 (HS 578T)?
Answer: 5.36 µM

Question: What about the GI50 (UACC-257) of the same compound?
Answer: 14 µM

Question: What about the GI50 (MOLT-4) of the same compound?
Answer: 5.28 µM

Question: And the GI50 (SK-MEL-5)?
Answer: 5.74 µM

Question: And the GI50 (UACC-62)?
Answer: 2.83 µM

Question: And the GI50 (HOP-62)?
Answer: 3.92 µM

Question: What about the GI50 (COLO 205) of the same compound?
Answer: 4.29 µM

Question: And the GI50 (TK-10)?
Answer: 6.01 µM

Question: What about the GI50 (786-0) of the same compound?
Answer: 4.36 µM

Question: What about the GI50 (OVCAR-8) of the same compound?
Answer: 4.86 µM

Question: And the GI50 (HCT-116)?
Answer: 1.84 µM

Question: And the GI50 (M14)?
Answer: 3.02 µM

Question: What about the GI50 (MDA-MB-435) of the same compound?
Answer: 4.58 µM

Question: What about the GI50 (IGROV1) of the same compound?
Answer: 4.63 µM

Question: And the GI50 (PC-3)?
Answer: 7.06 µM

Question: What about the GI50 (SK-MEL-2 [1]) of the same compound?
Answer: 6.26 µM

Question: What about the GI50 (SR) of the same compound?
Answer: 0.53 µM

Question: And the GI50 (SK-OV-3)?
Answer: 6.97 µM

Question: What about the GI50 (RXF393) of the same compound?
Answer: 3.39 µM

Question: And the GI50 (SW-620)?
Answer: 4.29 µM

Question: And the GI50 (OVCAR-3)?
Answer: 3.92 µM

Question: And the GI50 (SF-539)?
Answer: 2.93 µM

Question: What about the GI50 (HCC-2998) of the same compound?
Answer: 5.1 µM

Question: And the GI50 (HOP-92)?
Answer: 3.32 µM

Question: What about the GI50 (SF-295) of the same compound?
Answer: 4.41 µM

Question: What about the GI50 (U251) of the same compound?
Answer: 1.88 µM

Question: And the GI50 (OVCAR-4)?
Answer: 3.31 µM

Question: What about the GI50 (UO-31) of the same compound?
Answer: 2.65 µM

Question: What about the GI50 (LOX IMVI) of the same compound?
Answer: 0.56 µM

Question: What about the melting point of the same compound?
Answer: 219 to 220 °C

Question: What about the GI50 (NCI-460) of the same compound?
Answer: 2.64 µM

Question: What about the GI50 (CCRF-CEM) of the same compound?
Answer: 4.34 µM

Question: What about the GI50 (K-562) of the same compound?
Answer: 2.06 µM

Question: What about the GI50 (BT-549) of the same compound?
Answer: 2.94 µM

Question: What about the GI50 (NCI/ADR-RES) of the same compound?
Answer: 5.37 µM

Question: And the GI50 (RPMI-8226)?
Answer: 2.28 µM

Question: And the GI50 (NCI-H522)?
Answer: 3.92 µM

Question: And the GI50 (NCI-H23)?
Answer: 4.25 µM

Question: And the GI50 (A549/ATCC)?
Answer: 4.16 µM

Question: And the GI50 (SN12C)?
Answer: 3.71 µM

Question: And the GI50 (KM12)?
Answer: 3.06 µM

Question: What about the GI50 (MALME-3M) of the same compound?
Answer: 16.7 µM

Question: And the GI50 (MDA-MB-231/ATCC)?
Answer: 3.36 µM

Question: And the GI50 (SNB-75)?
Answer: 2.81 µM

Question: And the GI50 (NCI-H226)?
Answer: 3.61 µM

Question: What about the GI50 (HL-60(TB)) of the same compound?
Answer: 3.18 µM

Question: What about the GI50 (OVCAR-5) of the same compound?
Answer: 4.97 µM

Question: And the GI50 (HCT15)?
Answer: 1.93 µM

Question: And the GI50 (SNB-19)?
Answer: 3.58 µM

Question: What about the GI50 (EKVX) of the same compound?
Answer: 3.59 µM

Question: What about the GI50 (T-47D) of the same compound?
Answer: 3.8 µM

Question: And the GI50 (DU-145)?
Answer: 4.45 µM

Question: And the GI50 (CAKI-1)?
Answer: 5.08 µM

Question: What about the GI50 (HT29) of the same compound?
Answer: 5.64 µM

Question: What about the GI50 (ACHN) of the same compound?
Answer: 3.95 µM

Question: And the GI50 (A498)?
Answer: 3.73 µM

Question: What about the GI50 (NCI-322M) of the same compound?
Answer: 3.49 µM

Question: What about the GI50 (SK-MEL-2 [2]) of the same compound?
Answer: 4.92 µM

Question: And the GI50 (MDA-MB-468)?
Answer: 1.99 µM

Question: And the GI50 (MCF7)?
Answer: 2.52 µM
